{"source": "patent EP4578861A1", "about": "“NOVEL TRICYCLIC HETEROCYCLIC CARBALDEHYDE COMPOUND AND PHARMACEUTICAL COMPOSITION, CONTAINING SAME, FOR IRE1ALPHA INHIBITION” (Hanmi Pharm. Co., Ltd., priority 2022, dated 2024)"}
{"test_system": "spliced XBP1", "assay": "Spliced XBP1 mRNA measurement test (RT-PCR, tunicamycin-induced ER stress in MCF-7 cells)", "assay_type": "cell-based", "conditions": "Homo sapiens, MCF7, compound pre-treated for 1 hour, then 2 µg/mL tunicamycin for 6 or 24 hours, spliced XBP1 corrected by total XBP1", "experimental": "With respect to these synthetic compounds, reverse transcription polymerase chain reaction (RT-PCR) experiments were conducted on MCF-7 cancer cells to confirm the effect thereof on the mRNA and protein amounts of spliced XBP1, which is the target of IRE endonuclease. A reverse transcription polymerase chain reaction is a test method in which RNA is extracted from cells, reverse transcriptase is used to make cDNA, and relative mRNA expression level is measured through a polymerase chain reaction.\nBriefly, MCF-7 cells were seeded in a 12-well plate and cultured in an incubator including 5% CO2 for one day. On the next day, compounds, which were 10-fold serially diluted from 10,000 nM, were pre-treated for 1 hour, and then, treated with 2 µg/mL tunicamycin for 6 or 24 hours to induce endoplasmic reticulum stress, followed by cell lysis to obtain RNA. RNA was subjected to the procedure of RNeasy Kits (Qiagen, 74106), and 5 µg of RNA sample was dissolved in a sample including reverse transcriptase and dNTP, and reverse transcription reaction was performed with a thermal cycler. The amount of mRNA of each of spliced XBP1 and total XBP1 was measured by a polymerase chain reaction through real time PCR by mixing each cDNA sample with a PCR reaction mixture including a primer pair capable of binding specifically to each target and SYBR green dye. The expression level of spliced XBP1 was corrected by the total expression level of XBP1, and the relative expression levels of spliced XBP1 between samples were compared and analyzed.", "units": {"IC50": "nM"}}
{"smiles": "Cc1c(CC(=O)N2CCOCC2)c(=O)oc2c(C=O)c(O)c3c(c12)CCO3", "note": "[Example 1, 4-hydroxy-9-methyl-8-(2-morpholino-2-oxoethyl)-7-oxo-1,7-dihydro-2H-furo[3,2-f]chromene-5-carbaldehyde]", "IC50": "< 100"}
{"smiles": "Cc1c(CC(=O)N2CCOCC2)c(=O)oc2c(C=O)c(O)c3c(c12)OCO3", "note": "[Example 2, 4-hydroxy-9-methyl-8-(2-morpholino-2-oxoethyl)-7-oxo-7H-[1,3]dioxolo[4,5-f]chromene-5-carbaldehyde]", "IC50": "100 to 200"}
{"smiles": "Cc1c(CC(=O)N2CCOCC2)c(=O)oc2c(C=O)c(O)c3c(c12)CCCO3", "note": "[Example 3, 6-hydroxy-1-methyl-2-(2-morpholino-2-oxoethyl)-3-oxo-3,8,9,10-tetrahydropyrano[3,2-f]chromene-5-carbaldehyde]", "IC50": "< 100"}
{"smiles": "Cc1c(CC(=O)N2CCC(C)CC2)c(=O)oc2c(C=O)c(O)c3c(c12)CCCO3", "note": "[Example 4, 6-hydroxy-1-methyl-2-(2-(4-methylpiperidin-1-yl)-2-oxoethyl)-3-oxo-3,8,9,10-tetrahydropyrano[3,2-f]chromene-5-carbaldehyde]", "IC50": "≥ 200"}
{"smiles": "Cc1c(CC(=O)N2CCCC2)c(=O)oc2c(C=O)c(O)c3c(c12)CCCO3", "note": "[Example 5, 6-hydroxy-1-methyl-3-oxo-2-(2-oxo-2-(pyrrolidin-1-yl)ethyl)-3,8,9,10-tetrahydropyrano[3,2-f]chromene-5-carbaldehyde]", "IC50": "< 100"}
{"smiles": "Cc1c(CC(=O)N2CCN(C)CC2)c(=O)oc2c(C=O)c(O)c3c(c12)CCCO3", "note": "[Example 6, 6-hydroxy-1-methyl-2-(2-(4-methylpiperazin-1-yl)-2-oxoethyl)-3-oxo-3,8,9,10-tetrahydropyrano[3,2-f]chromene-5-carbaldehyde]", "IC50": "< 100"}
{"smiles": "Cc1c(CC(=O)N2CCN(C(C)C)CC2)c(=O)oc2c(C=O)c(O)c3c(c12)CCCO3", "note": "[Example 7, 6-hydroxy-2-(2-(4-isopropylpiperazin-1-yl)-2-oxoethyl)-1-methyl-3-oxo-3,8,9,10-tetrahydropyrano[3,2-f]chromene-5-carbaldehyde]", "IC50": "100 to 200"}
{"smiles": "CCNC(=O)Cc1c(C)c2c3c(c(O)c(C=O)c2oc1=O)OCC3", "note": "[Example 8, N-ethyl-2-(5-formyl-4-hydroxy-9-methyl-7-oxo-1,7-dihydro-2H-furo[3,2-f]chromen-8-yl)acetamide]", "IC50": "< 100"}
{"smiles": "CCN(CC)C(=O)Cc1c(C)c2c3c(c(O)c(C=O)c2oc1=O)OCC3", "note": "[Example 9, N,N-diethyl-2-(5-formyl-4-hydroxy-9-methyl-7-oxo-1,7-dihydro-2H-furo[3,2-f]chromen-8-yl)acetamide]", "IC50": "< 100"}
{"smiles": "Cc1c(CC(=O)N2CCC(F)(F)C2)c(=O)oc2c(C=O)c(O)c3c(c12)CCCO3", "note": "[Example 10, 2-(2-(3,3-difluoropyrrolidin-1-yl)-2-oxoethyl)-6-hydroxy-1-methyl-3-oxo-3,8,9,10-tetrahydropyrano[3,2-f]chromene-5-carbaldehyde]", "IC50": "< 100"}
{"smiles": "Cc1c(CC(=O)N2CCC(C)C2)c(=O)oc2c(C=O)c(O)c3c(c12)CCCO3", "note": "(stereo not shown) [Example 11, 6-hydroxy-1-methyl-2-(2-(3-methylpyrrolidin-1-yl)-2-oxoethyl)-3-oxo-3,8,9,10-tetrahydropyrano[3,2-f]chromene-5-carbaldehyde]", "IC50": "< 100"}
{"smiles": "Cc1c(CC(=O)N2CCC(C)(C)C2)c(=O)oc2c(C=O)c(O)c3c(c12)CCCO3", "note": "[Example 12, 2-(2-(3,3-dimethylpyrrolidin-1-yl)-2-oxoethyl)-6-hydroxy-1-methyl-3-oxo-3,8,9,10-tetrahydropyrano[3,2-f]chromene-5-carbaldehyde]", "IC50": "100 to 200"}
{"smiles": "Cc1c(CC(=O)N2CCC2)c(=O)oc2c(C=O)c(O)c3c(c12)CCCO3", "note": "[Example 13, 2-(2-(azetidin-1-yl)-2-oxoethyl)-6-hydroxy-1-methyl-3-oxo-3,8,9,10-tetrahydropyrano[3,2-f]chromene-5-carbaldehyde]", "IC50": "100 to 200"}
{"smiles": "COC1CCN(C(=O)Cc2c(C)c3c4c(c(O)c(C=O)c3oc2=O)OCCC4)C1", "note": "(stereo not shown) [Example 14, 6-hydroxy-2-(2-(3-methoxypyrrolidin-1-yl)-2-oxoethyl)-1-methyl-3-oxo-3,8,9,10-tetrahydropyrano[3,2-f]chromene-5-carbaldehyde]", "IC50": "100 to 200"}
{"smiles": "COC1CN(C(=O)Cc2c(C)c3c4c(c(O)c(C=O)c3oc2=O)OCCC4)C1", "note": "[Example 15, 6-hydroxy-2-(2-(3-methoxyazetidin-1-yl)-2-oxoethyl)-1-methyl-3-oxo-3,8,9,10-tetrahydropyrano[3,2-f]chromene-5-carbaldehyde]", "IC50": "100 to 200"}
{"smiles": "Cc1c(CC(=O)N2CCC(F)C2)c(=O)oc2c(C=O)c(O)c3c(c12)CCCO3", "note": "(stereo not shown) [Example 16, 2-(2-(3-fluoropyrrolidin-1-yl)-2-oxoethyl)-6-hydroxy-1-methyl-3-oxo-3,8,9,10-tetrahydropyrano[3,2-f]chromene-5-carbaldehyde]", "IC50": "≥ 200"}
{"smiles": "CCNC(=O)Cc1c(C)c2c3c(c(O)c(C=O)c2oc1=O)OCCC3", "note": "[Example 17, N-ethyl-2-(5-formyl-6-hydroxy-1-methyl-3-oxo-3,8,9,10-tetrahydropyrano[3,2-f]chromen-2-yl)acetamide]", "IC50": "< 100"}
{"smiles": "CCc1c(CC(=O)N2CCCC2)c(=O)oc2c(C=O)c(O)c3c(c12)CCCO3", "note": "[Example 18, 1-ethyl-6-hydroxy-3-oxo-2-(2-oxo-2-(pyrrolidin-1-yl)ethyl)-3,8,9,10-tetrahydropyrano[3,2-f]chromene-5-carbaldehyde]", "IC50": "≥ 200"}
{"smiles": "Cc1c(CC(=O)N2CC(F)C2)c(=O)oc2c(C=O)c(O)c3c(c12)CCCO3", "note": "[Example 19, 2-(2-(3-fluoroazetidin-1-yl)-2-oxoethyl)-6-hydroxy-1-methyl-3-oxo-3,8,9,10-tetrahydropyrano[3,2-f]chromene-5-carbaldehyde]", "IC50": "100 to 200"}
{"smiles": "Cc1c(CC(=O)N2CCC3(CC3)C2)c(=O)oc2c(C=O)c(O)c3c(c12)CCCO3", "note": "[Example 20, 6-hydroxy-1-methyl-3-oxo-2-(2-oxo-2-(5-azaspiro[2.4]heptan-5-yl)ethyl)-3,8,9,10-tetrahydropyrano[3,2-f]chromene-5-carbaldehyde]", "IC50": "100 to 200"}
{"smiles": "Cc1c(CC(=O)N2CCCCC2)c(=O)oc2c(C=O)c(O)c3c(c12)CCCO3", "note": "[Example 21, 6-hydroxy-1-methyl-3-oxo-2-(2-oxo-2-(piperidin-1-yl)ethyl)-3,8,9,10-tetrahydropyrano[3,2-f]chromene-5-carbaldehyde]", "IC50": "≥ 200"}
{"smiles": "Cc1c(CC(N)=O)c(=O)oc2c(C=O)c(O)c3c(c12)CCCO3", "note": "[Example 22, 2-(5-formyl-6-hydroxy-1-methyl-3-oxo-3,8,9,10-tetrahydropyrano[3,2-f]chromen-2-yl)acetamide]", "IC50": "≥ 200"}
{"smiles": "CC(C)c1c(CC(=O)N2CCCC2)c(=O)oc2c(C=O)c(O)c3c(c12)CCCO3", "note": "[Example 23, 6-hydroxy-1-isopropyl-3-oxo-2-(2-oxo-2-(pyrrolidin-1-yl)ethyl)-3,8,9,10-tetrahydropyrano[3,2-f]chromene-5-carbaldehyde]", "IC50": "100 to 200"}
{"smiles": "COCCNC(=O)Cc1c(C)c2c3c(c(O)c(C=O)c2oc1=O)OCCC3", "note": "[Example 24, 2-(5-formyl-6-hydroxy-1-methyl-3-oxo-3,8,9,10-tetrahydropyrano[3,2-f]chromen-2-yl)-N-(2-methoxyethyl)acetamide]", "IC50": "< 100"}
{"smiles": "CCN(CC)C(=O)Cc1c(C)c2c3c(c(O)c(C=O)c2oc1=O)OCCC3", "note": "[Example 25, N,N-diethyl-2-(5-formyl-6-hydroxy-1-methyl-3-oxo-3,8,9,10-tetrahydropyrano[3,2-f]chromen-2-yl)acetamide]", "IC50": "< 100"}
{"smiles": "CC(=O)N1CCN(C(=O)Cc2c(C)c3c4c(c(O)c(C=O)c3oc2=O)OCCC4)CC1", "note": "[Example 26, 2-(2-(4-acetylpiperazin-1-yl)-2-oxoethyl)-6-hydroxy-1-methyl-3-oxo-3,8,9,10-tetrahydropyrano[3,2-f]chromene-5-carbaldehyde]", "IC50": "≥ 200"}
{"smiles": "Cc1c(CC(=O)N2CC3CC2CO3)c(=O)oc2c(C=O)c(O)c3c(c12)CCCO3", "note": "(stereo not shown) [Example 27, 2-(2-(2-oxa-5-azabicyclo[2.2.1]heptan-5-yl)-2-oxoethyl)-6-hydroxy-1-methyl-3-oxo-3,8,9,10-tetrahydropyrano[3,2-f]chromene-5-carbaldehyde]", "IC50": "< 100"}
{"smiles": "Cc1c(CC(=O)N2CCSCC2)c(=O)oc2c(C=O)c(O)c3c(c12)CCCO3", "note": "[Example 28, 6-hydroxy-1-methyl-3-oxo-2-(2-oxo-2-thiomorpholinoethyl)-3,8,9,10-tetrahydropyrano[3,2-f]chromene-5-carbaldehyde]", "IC50": "100 to 200"}
{"smiles": "Cc1c(CC(=O)NCCN2CCOCC2)c(=O)oc2c(C=O)c(O)c3c(c12)CCCO3", "note": "[Example 29, 2-(5-formyl-6-hydroxy-1-methyl-3-oxo-3,8,9,10-tetrahydropyrano[3,2-f]chromen-2-yl)-N-(2-morpholinoethyl)acetamide]", "IC50": "≥ 200"}
{"smiles": "Cc1c(CC(=O)N2CCSC2)c(=O)oc2c(C=O)c(O)c3c(c12)CCCO3", "note": "[Example 30, 6-hydroxy-1-methyl-3-oxo-2-(2-oxo-2-(thiazolidin-3-yl)ethyl)-3,8,9,10-tetrahydropyrano[3,2-f]chromene-5-carbaldehyde]", "IC50": "< 100"}
{"smiles": "Cc1c(CC(=O)N2CCNCC2)c(=O)oc2c(C=O)c(O)c3c(c12)CCCO3", "note": "[Example 31, 6-hydroxy-1-methyl-3-oxo-2-(2-oxo-2-(piperazin-1-yl)ethyl)-3,8,9,10-tetrahydropyrano[3,2-f]chromene-5-carbaldehyde]", "IC50": "≥ 200"}
